Laboratory results from the supplement of paper PMC9938120.

What was measured:
Experiment in all cases: drug sensitivity score (DSS3, normalised partial AUC of % inhibition dose-response) (DSS (score)); higher = more sensitive (stronger inhibition of viability); extreme values may be limits of the assay
FMOC02_1 = patient-derived low-grade serous ovarian cancer cells; settings: 72 h; library: FO5A; assay format: 2D, 384-well, CellTiter-Glo
Method in brief: (§1)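 The drug sensitivity score is calculated as a partial area under the percent-inhibition dose-response curve, divided by the log of the upper asymptote; higher scores mean more sensitive. For this score, early-passage (under 10) patient-derived ovarian cancer cells were exposed on 384-well flat clear-bottom plates to compounds at five concentrations across a 10,000-fold range for 72 h at 37 °C, 5% CO2. Viability was read with CellTiter-Glo and processed in Breeze.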

FMOC02_2 = patient-derived low-grade serous ovarian cancer cells; settings: 72 h; library: FO5A; assay format: 2D, 384-well, CellTiter-Glo
Method in brief: as §1

FMOC02_3 = patient-derived low-grade serous ovarian cancer cells; settings: 72 h; library: FO5A; assay format: 2D, 384-well, CellTiter-Glo
Method in brief: as §1

FMOC03 = patient-derived mucinous ovarian cancer cells; settings: 72 h; library: FO5A; assay format: 2D, 384-well, CellTiter-Glo
Method in brief: as §1

FMOC04 = patient-derived high-grade serous ovarian cancer cells; settings: 72 h; library: FO5A; assay format: 2D, 384-well, CellTiter-Glo
Method in brief: as §1

FMOC06 = patient-derived mucinous ovarian cancer cells; settings: 72 h; library: FO5A; assay format: 2D, 384-well, CellTiter-Glo
Method in brief: as §1

FMOC09 = patient-derived high-grade serous ovarian cancer cells; settings: 72 h; library: FO5A; assay format: 2D, 384-well, CellTiter-Glo
Method in brief: as §1

FMOC11 = patient-derived high-grade serous ovarian cancer cells; settings: 72 h; library: FO5A; assay format: 2D, 384-well, CellTiter-Glo
Method in brief: as §1

FMOC14 = patient-derived high-grade serous ovarian cancer cells; settings: 72 h; library: FO5A; assay format: 2D, 384-well, CellTiter-Glo
Method in brief: as §1

FMOC17 = patient-derived low-grade serous ovarian cancer cells; settings: 72 h; library: FO5A; assay format: 2D, 384-well, CellTiter-Glo
Method in brief: as §1

FMOC22 = patient-derived mucinous ovarian cancer cells; settings: 72 h; library: FO5A; assay format: 2D, 384-well, CellTiter-Glo
Method in brief: as §1

FMOC24 = patient-derived high-grade serous ovarian cancer cells; settings: 72 h; library: FO5A; assay format: 2D, 384-well, CellTiter-Glo
Method in brief: as §1

FMOC25_1 = patient-derived low-grade serous ovarian cancer cells; settings: 72 h; library: FO4B; assay format: 2D, 384-well, CellTiter-Glo
Method in brief: as §1

FMOC25_2 = patient-derived low-grade serous ovarian cancer cells; settings: 72 h; library: FO5A; assay format: 2D, 384-well, CellTiter-Glo
Method in brief: as §1

FMOC27 = patient-derived low-grade serous ovarian cancer cells; settings: 72 h; library: FO5A; assay format: 2D, 384-well, CellTiter-Glo
Method in brief: as §1

FMOC28 = patient-derived low-grade serous ovarian cancer cells; settings: 72 h; library: FO5A; assay format: 2D, 384-well, CellTiter-Glo
Method in brief: as §1

Row | SMILES | drug sensitivity score (FMOC02_1) | drug sensitivity score (FMOC02_2) | drug sensitivity score (FMOC02_3) | drug sensitivity score (FMOC03) | drug sensitivity score (FMOC04) | drug sensitivity score (FMOC06) | drug sensitivity score (FMOC09) | drug sensitivity score (FMOC11) | drug sensitivity score (FMOC14) | drug sensitivity score (FMOC17) | drug sensitivity score (FMOC22) | drug sensitivity score (FMOC24) | drug sensitivity score (FMOC25_1) | drug sensitivity score (FMOC25_2) | drug sensitivity score (FMOC27) | drug sensitivity score (FMOC28)
1 | CC(C)(C)c1nc(-c2cccc(NS(=O)(=O)c3c(F)cccc3F)c2F)c(-c2ccnc(N)n2)s1 [Dabrafenib] | 5.9 | 0.8 | 4.7 | 0 | 0 | 0 | 0 | 0 | 0 | 0.1 | 0 | 0 | 1.8 | 4 | 0 | 1.4
2 | COc1cc2c(N3CCN(C(=O)Nc4ccc(OC(C)C)cc4)CC3)ncnc2cc1OCCCN1CCCCC1 [Tandutinib] | 0 | 0 | 0 | 0 | 0 | 0 | 0 | 0 | 0 | 0 | 0 | 0.75 | 0 | 0 | 0 | 1.4
3 | CC1(C)NC(=O)N(c2ccc([N+](=O)[O-])c(C(F)(F)F)c2)C1=O [Nilutamide] | 0 | 0 | 0 | 0 | 0 | 0 | 0 | 0 | 0 | 0.5 | 0 | 0.65 | 0 | 0 | 0.1 | 0
4 | Clc1ccc(C(c2ccccc2Cl)C(Cl)Cl)cc1 (centres undefined) [Mitotane] | 0 | 0 | 0 | 0 | 0 | 0 | 0 | 0 | 0 | 0 | 0 | 0 | 0 | 0 | 0 | 0
5 | Cc1ccc(Nc2nccc(N(C)c3ccc4c(C)n(C)nc4c3)n2)cc1S(N)(=O)=O [Pazopanib] | 1.3 | 0.4 | 1.5 | 0 | 0 | 0 | 0 | 0 | 0 | 0 | 0 | 3.8 | 1.1 | 3 | 0.6 | 0
6 | NC1(c2ccc(-c3nc4ccn5c(=O)[nH]nc5c4cc3-c3ccccc3)cc2)CCC1 [MK-2206] | 4.9 | 7.5 | 6.9 | 2.5 | 1.75 | 4.8 | 2.7 | 0.9 | 2 | 4.2 | 0.8 | 1.5 | 4.9 | 3 | 1.5 | 5.5
7 | C[C@]12C=CC(=O)C=C1CC[C@@H]1[C@@H]2[C@@H](O)C[C@@]2(C)[C@H]1CC[C@]2(O)C(=O)CO [Prednisolone] | 0.1 | 0 | 0 | 0 | 0 | 0.7 | 0 | 0 | 0 | 0 | 0 | 0.65 | 0 | 0 | 0 | 0
8 | Cc1ccc(NC(=O)c2ccc(CN3CCN(C)CC3)cc2)cc1Nc1nccc(-c2cccnc2)n1 [Imatinib] | 0.3 | 1.2 | 1.6 | 0.4 | 0 | 0 | 0 | 0 | 2 | 0 | 0 | 2.75 | 0.3 | 0.1 | 0 | 0
9 | CC(=O)Nc1ccc(C(=O)Nc2ccccc2N)cc1 [Tacedinaline] | 0.7 | 1.3 | 2 | 0 | 0 | 3.7 | 0 | 1 | 0.6 | 1.1 | 0 | 2.05 | 0 | 0 | 0 | 1.7
10 | COc1cc2c(Oc3ccc4[nH]c(C)cc4c3F)ncnc2cc1OCCCN1CCCC1 [Cediranib] | 1.1 | 0.9 | 0 | 0 | 0 | 0.5 | 0 | 0.2 | 0 | 0.2 | 0 | 1.85 | 1.7 | 0 | 0 | 1
11 | Cn1cc(C[C@@H](N)C(=O)O)c2ccccc21 [1-methyl-D-tryptophan] | 0 | 0 | 0 | 0 | 0 | 0 | 0.2 | 0 | 0 | 0 | 0 | 0 | 0 | 0 | 0 | 0.5
12 | CCCS(=O)(=O)Nc1ccc(F)c(C(=O)c2c[nH]c3ncc(-c4ccc(Cl)cc4)cc23)c1F [Vemurafenib] | 3.3 | 1.6 | 1.8 | 3 | 0 | 0.3 | 0 | 1.6 | 1.3 | 1 | 2.5 | 1.65 | 1.7 | 1.6 | 0 | 2.6
13 | CC(C)N(CCCNC(=O)Nc1ccc(C(C)(C)C)cc1)C[C@H]1O[C@@H](n2cc(Br)c3c(N)ncnc32)[C@H](O)[C@@H]1O [SGC0946] | 1.2 | 2.8 | 0.9 | 0.1 | 0.95 | 1.4 | 0 | 0.6 | 0 | 2 | 0.1 | 3.95 | 0 | 2.5 | 1.8 | 3.3
14 | OC[C@H]1O[C@@H](n2cnc3c2N=CNC[C@H]3O)C[C@@H]1O [Pentostatin] | 0 | 0 | 0 | 0 | 0 | 0 | 0 | 0 | 0 | 0 | 0 | 0 | 0 | 0 | 0 | 0
15 | CN1CCN(c2ccc3nc(-c4c(N)c5c(F)cccc5[nH]c4=O)[nH]c3c2)CC1 [Dovitinib] | 0.6 | 1.4 | 1.1 | 0 | 0 | 0 | 0 | 0.1 | 0 | 0 | 0 | 1.6 | 0.2 | 0.4 | 0 | 1
16 | C[C@@H](Oc1cc(-c2cnn(C3CCNCC3)c2)cnc1N)c1c(Cl)ccc(F)c1Cl [Crizotinib] | 0.9 | 0.1 | 0 | 0 | 0.05 | 0 | 0 | 0 | 0 | 0 | 0 | 0.65 | 0 | 0.4 | 0 | 0
17 | O=C(O)c1ccc(-c2c[nH]c3ncc(-c4ccccc4)cc23)cc1C1CCCC1 | 0 | 0 | 0 | 0.5 | 0 | 0 | 0 | 0 | 0 | 0 | 0.8 | 0.65 | 0 | 0.4 | 0 | 2.9
18 | CC(=O)c1c(C)c2cnc(Nc3ccc(N4CCNCC4)cn3)nc2n(C2CCCC2)c1=O [Palbociclib] | 3.8 | 4.9 | 6.2 | 2.7 | 0.65 | 2.5 | 0.5 | 1.4 | 1.6 | 0.7 | 0.5 | 2.95 | 2.5 | 5.2 | 1.1 | 3.9
19 | Nc1nc(OCc2cc(Br)cs2)c2[nH]cnc2n1 [Lomeguatrib] | 0 | 0.8 | 0.4 | 0 | 0 | 0 | 0 | 0 | 0 | 0 | 0 | 0 | 0 | 1.4 | 0 | 2.6
20 | Cn1cnc2c(F)c(Nc3ccc(Br)cc3F)c(C(=O)NOCCO)cc21 [Binimetinib] | 5.5 | 7.1 | 7.1 | 4.8 | 0 | 7.6 | 4.2 | 0 | 0 | 6 | 3.6 | 0 | 6.6 | 3.2 | 2.2 | 1.6
21 | Nc1nc(Nc2ccc3c(c2)CC[C@@H](N2CCCC2)CC3)nn1-c1cc2c(nn1)-c1ccccc1CCC2 [BGB324] | 7.2 | 5 | 7.6 | 2.4 | 5.35 | 3.7 | 0.9 | 4.4 | 6.2 | 3.8 | 1.7 | 7.9 | 5.1 | 2.7 | 0.3 | 0.8
22 | Cc1ccc(C(=O)N(CCCN)[C@@H](c2oc3cc(Cl)ccc3c(=O)c2Cc2ccccc2)C(C)C)cc1 | 3.3 | 2.4 | 2.5 | 1.8 | 2.4 | 1.1 | 2.4 | 1.9 | 0 | 1.3 | 1.3 | 0 | 1.9 | 5.6 | 0 | 5
23 | CCCOc1ccn2c(C(C)=O)cc(-c3ccccc3S(C)(=O)=O)c2c1 [GSK2801] | 0 | 0.1 | 0 | 0 | 0 | 0 | 0 | 0 | 0 | 0 | 0 | 0 | 0 | 1.5 | 0 | 4.9
24 | CCCc1cc(C)[nH]c(=O)c1CNC(=O)c1cc(-c2ccnc(N3CCN(C)CC3)c2)cc2c1cnn2C(C)C [GSK343] | 0 | 0 | 0 | 0 | 0 | 0 | 0.1 | 0 | 0 | 0.3 | 0 | 0.55 | 1.6 | 0.1 | 0 | 2
